Holding throughout (type): cell-based
Assay [1] relates to motoneurons derived from human iPS cells (409B2 cell lines). Nature of the assay: oxidative stress test, Directionality (orientation of axon) after Tau 1 immunostaining. Conditions: H2O2 3 hour treatment, PBS washing, culture medium with or without Edaravone; evaluated two days after treatment; highest = negative control. As to the method: Here, cell body spheroids were produced by inoculating motoneurons derived from human iPS cells (409B2 cell lines) in the nonadherent cultivation plate 10. Then, after 10 days of cultivation, the cell body spheroids were inoculated in the first chamber 12a of the module 11 of the cultivation plate 10. Then, after 30 days of cultivation, the treatments of the following (1)-(3) conditions were accomplished.
(1) control PBS (Phosphate Buffered Saline) washing>>>culture medium
(2) H2O2 3 hour treatment>>>PBS washing>>>culture medium
(3) H2O2 3 hour treatment>>>PBS washing>>>culture medium containing Edaravone
Two days after the treatment, evaluation was done after immunostaining by marker Tau 1. The evaluation item was Directionality, which was the orientation of axon. Specifically, the orientations of objects in FIG. 22 were measured In this case, 0 degree indicated the direction of fluid conduit (channel 13). Since the axons were bundled and extended in the same direction, their morphological changes in the channel 13 could be compared between in case of under oxidative stress, as shown in FIG. 22 (b), and in case of under oxidative stress accompanied by application of antioxidant (Edaravone), which was used as neurological disease drug, as shown in FIG. 22 (c). […]

For assay [2] the test system is unchanged. Nature of the assay: calcium imaging of motoneuron spheroid with axon bundle after KCl stimulation. The conditions noted are these: 1 [mol] of KCl provided to the cell spheroid after fluorescent treatment. The text has this:
FIG. 13 is a set of photographs showing motoneurons used for calcium imaging. In FIG. 13, (a) is a photograph of a spheroid with a bundle of axons outside the cultivation plate before adding calcium, (b) is a photograph of a spheroid with a bundle of axons outside the cultivation plate after adding calcium. In the present experiment, motoneurons derived from human iPS cells (409B2 cell lines) were used. The cell spheroids of the motoneurons were inoculated in the first chambers 12a and cultivated. The motoneurons and the cell spheroids were gained in the same way as mentioned above and the cultivation was accomplished in the same way as mentioned above. After cultivation, one of the motoneurons with a well grown and extended bundle of axons was extracted or brought out from the module 11 of the cultivation plate 10. Then 1 [mol] of KCl was provided to the cell spheroid, so that fluorescence became intense, as shown in FIG. 13(b), as a result of electrophysiological activity induced by the stimulation of KCl.

Assay [3] shares this test system. Nature of the assay: ER stress test on axon bundle (form and orientation of axon). Conditions: culture fluid including 1.5 [mol] of thapsigargin for 5 hours, evaluated 6 days later, versus untreated. From the text:
The first experiment was accomplished to confirm the effect of ER stress against motoneuron using thapsigargin. In the first experiment, motoneurons derived from human iPS cells (409B2 cell lines) were used. The cell body spheroids of the motoneurons were inoculated in the first chambers 12a and cultivated. The motoneurons and the cell body spheroids were gained in the same way as mentioned above and the cultivation was accomplished in the same way as mentioned above. After cultivation, one of the motoneurons with a well grown and extended axon bundle was treated with culture fluid including 1.5 [mol] of thapsigargin for 5 hours. Then, 6 days later, the form of the axon bundle was evaluated, as shown in FIG. 17(b), in comparison with another axon bundle of the motoneurons not treated with any thapsigargin, as shown in FIG. 17(a). It can be said that, when suffering stress, the orientation of the axon becomes low or the axon degenerates.

Molecules are shown by their SMILES.

For `OO` [H2O2], in assay [1], the “Directionality of the axon bundle in the direction of fluid conduit (0 degree), order among conditions” value is listed as “the third”. Same read-out and setting: the same measure for `CC1=NN(c2ccccc2)C(=O)C1` [Edaravone]: “the second”.

Consider `[Cl-].[K+]` [KCl], for which, in assay [2], the “electrophysiological activity (fluorescence) of motoneuron including cell spheroid and bundle of axons” value is listed as “became electrophysiologically active”.

As for `C/C=C(/C)C(=O)O[C@H]1C(C)=C2[C@H]([C@@H]1OC(=O)CCCCCCC)[C@@](C)(OC(C)=O)C[C@H](OC(=O)CCC)[C@@]1(O)[C@H]2OC(=O)[C@@]1(C)O` [thapsigargin], the “form of the axon bundle under ER stress” value in assay [3] is recorded as “became deformed”.

For the origin of these results see patent US20210054320A1, “NEURON CULTIVATION DEVICE, NEURON CULTIVATING METHOD, CULTIVATED NEURON, ANALYSIS AND IDENTIFICATION OF PROTEIN IN AXON BUNDLE, AND USAGE OF CULTIVATED NEURON” (THE FOUNDATION FOR THE PROMOTION OF INDUSTRIAL SCIENCE, priority 2016, published 2021).
